From US6579861B2, “1α-hydroxy-2-methylene-19-nor-homopregnacalciferol and its uses” (Wisconsin Alumni Research Foundation, priority 2000, dated 2003)
Entries after “also recorded” stand apart in the source; their conditions may differ. Each block holds one compound with its values, some of them ahead of it.

Legend:
Sprague-Dawley rats [1] = test: Pre-dose and post-dose serum calcium (bone mobilization) after a single oral dose in rats; type: in vivo, rat; settings: average of 6 rats; for Post-Dose serum calcium: about 24 h after a single 1 nmol oral dose (gavage, vegetable oil); for Pre-Dose serum calcium: baseline, about 24 h before sacrifice, before the 1 nmol oral dose
Experimental: Weanling, male Sprague-Dawley rats (6/group) were placed on a vitamin D-deficient diet for a total of 5 weeks. During the first three weeks, the animals were fed a normal calcium diet (Diet 11+0.47% Ca+AEK supplement) and the last two weeks they were fed a low calcium diet (Diet 11+0.02% Ca+AEK supplement). Approximately 24 hours prior to sacrifice, animals were tail bled and then dosed with 1 nmol of the respective compounds. The doses were delivered orally in 100 microliters of vegetable oil by gavage. Serum was collected approximately 24 hour post-dose and it, along with the pre-dose serum, were subjected to total calcium analysis using atomic absorption spectrometry.

Sprague-Dawley rats [2] = test: Intestinal calcium transport after chronic i.p. doses in vitamin D-deficient rats; type: in vivo, rat; settings: for Intestinal Calcium Transport (S/M): vitamin D-deficient rats, low Ca diet, average ± SE, 5 animals
Experimental: (§1) Male, weanling Sprague-Dawley rats were placed on Diet 11 (0.47% Ca) diet+AEK for 11 days, followed by Diet 11 (0.02% Ca)+AEK for 31 days. Dosing (i.p.) began 7 days prior to sacrifice. Doses were given on a daily basis, 24 hours apart. The first 10 cm of the intestine was collected for gut transport studies and serum was collected for bone Ca mobilization analysis. The results are reported in Table 1 and illustrated in the graph of FIG. 2.

Sprague-Dawley rats [3] = test: Serum calcium (bone calcium mobilization) after chronic i.p. doses in vitamin D-deficient rats; type: in vivo, rat; settings: for Serum Calcium (bone calcium mobilization): vitamin D-deficient rats, low Ca diet, average ± SE, 5 animals
Experimental: as §1

[4] = molecular target: T1, vitamin D pig intestinal nuclear receptor (Sus scrofa, UniProt A3RGC1); test: Competitive binding of [3H]-1,25-(OH)2-D3 to the porcine intestinal vitamin D receptor; settings: FIG. 1, result in words
T1 construct: from tissue; host or cells: pig intestine (nuclear receptor preparation)
T1 sequence (A3RGC1 1-427): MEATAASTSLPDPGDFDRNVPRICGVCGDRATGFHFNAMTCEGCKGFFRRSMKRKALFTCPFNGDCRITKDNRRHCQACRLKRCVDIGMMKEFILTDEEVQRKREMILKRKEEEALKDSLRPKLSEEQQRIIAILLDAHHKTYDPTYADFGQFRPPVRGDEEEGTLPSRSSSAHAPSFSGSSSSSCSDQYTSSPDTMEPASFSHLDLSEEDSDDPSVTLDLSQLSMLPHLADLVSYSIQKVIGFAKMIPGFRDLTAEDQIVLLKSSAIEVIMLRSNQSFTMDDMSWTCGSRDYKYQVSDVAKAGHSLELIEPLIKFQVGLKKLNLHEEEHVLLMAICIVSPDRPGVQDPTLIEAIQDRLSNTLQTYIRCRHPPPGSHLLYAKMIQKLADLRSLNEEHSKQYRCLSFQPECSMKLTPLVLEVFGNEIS
Source text: FIG. 1 is a graph illustrating the relative activity of 1α-hydroxy-2-methylene-19-nor-homopregnacalciferol and 1α,25-dihydroxyvitamin D3 to compete for binding of [^3H]-1,25-(OH)2-D3 to the vitamin D pig intestinal nuclear receptor;
The introduction of a methylene group to the 2-position of 1α-hydroxy-19-nor-homopregnacalciferol had little or no effect on binding to the porcine intestinal vitamin D receptor, as compared to 1α,25-dihydroxyvitamin D3.
Competitive binding of the analogs to the porcine intestinal receptor was carried out by the method described by Dame et al (Biochemistry 25, 4523-4534, 1986).

HL-60 cells = test: Differentiation of HL-60 promyelocytes into monocytes; type: cell-based; settings: FIG. 4; result in words
Experimental: FIG. 4 is a graph illustrating the percent HL-60 cell differentiation as a function of the concentration of 1α-hydroxy-2-methylene-19-nor-homopregnacalciferol and of 1α,25-dihydroxyvitamin D3;
The differentiation of HL-60 promyelocytic into monocytes was determined as described by Ostrem et al (J. Biol. Chem. 262, 14164-14171, 1987).

[5] = tested on: 24-hydroxylase (240Hase) gene promoter in ROS 17/2.8 (bone) cells; test: Transcriptional activity, 24-hydroxylase promoter luciferase reporter in bone cells; type: cell-based
Experimental: (§2) Transcriptional activity was measured in two different cell lines. ROS 17/2.8 (bone) or LLC (kidney) cells were stably transfected with a 24-hydroxylase (240Hase) gene promoter upstream of a luciferase reporter gene (Arbour et al, 1998). Cells were given a range of doses. Sixteen hours after dosing the cells were harvested and luciferase activities were measured using a luminometer. The EC50 of 1α-hydroxy-2-methylene-19-nor-homopregnacalciferol is about 10 times lower in bone cells than kidney cells. […] The graphs of FIGS. 5 and 6 are representative of 4 to 5 independent experiments. In FIGS. 5 and 6, RLU means relative luciferase units.

[6] = tested on: 24-hydroxylase (240Hase) gene promoter in LLC (kidney) cells; test: Transcriptional activity, 24-hydroxylase promoter luciferase reporter in kidney cells; type: cell-based; settings: 16 h after dosing, FIG. 6, result in words
Experimental: as §2

[7] = listed as 1α-hydroxy-2-methylene-19-nor-homopregnacalciferol

Compound: C=C1[C@H](O)CC(=C/C=C2\CCC[C@]3(C)[C@@H]([C@@H](C)CCCC(C)(C)O)CC[C@@H]23)C[C@H]1O [2-methylene-19-nor-20(S)-1α,25-dihydroxyvitamin D3]
Post-Dose serum calcium (Sprague-Dawley rats [1]): 7.33 mg/dL | Pre-Dose serum calcium (Sprague-Dawley rats [1]): 4.45 mg/dL

Compound: C=C1/C(=C\C=C2/CCC[C@]3(C)[C@@H]([C@H](C)CCCC(C)(C)O)CC[C@@H]23)C[C@@H](O)C[C@@H]1O [1,25-(OH)2D3, 1α,25-dihydroxyvitamin D3, reference compound]
Intestinal Calcium Transport (S/M) (Sprague-Dawley rats [2]; 250 pmol/day/7 days i.p.): 5.21 ± 0.73 S/M | Intestinal Calcium Transport (S/M) (Sprague-Dawley rats [2]; 500 pmol/day/7 days i.p.): 6.85 ± 0.79 S/M | Serum Calcium (bone calcium mobilization) (Sprague-Dawley rats [3]; 250 pmol/day/7 days i.p.): 7.40 ± 0.47 mg/100 ml | Serum Calcium (bone calcium mobilization) (Sprague-Dawley rats [3]; 500 pmol/day/7 days i.p.): 7.20 ± 0.33 mg/100 ml | Post-Dose serum calcium (Sprague-Dawley rats [1]): 5.42 mg/dL | Pre-Dose serum calcium (Sprague-Dawley rats [1]): 4.51 mg/dL

Binding to the vitamin D receptor compared to 1,25-(OH)2D3 ([4]; listed as 2 MHP): slightly less active than 1,25(OH)2D3 | EC50 in bone cells relative to kidney cells (times lower) ([5]; ROS 17/2.8 (bone) versus LLC (kidney) cells, luciferase reporter): about 10 times
Compound: C=C1[C@H](O)CC(=C/C=C2\CCC[C@@]3(C)C2CCC3C(C)C)C[C@H]1O (stereo partly drawn) [2MHP, 1α-hydroxy-2-methylene-19-nor-homopregnacalciferol]
Binding to the vitamin D receptor compared to 1,25-(OH)2D3 [4, 7]: bound equally well to the porcine receptor as compared to the standard 1,25-(OH)2D3 | Intestinal Calcium Transport (S/M) (Sprague-Dawley rats [2]; 250 pmol/day/7 days i.p.): 3.22 ± 0.14 S/M | Intestinal Calcium Transport (S/M) (Sprague-Dawley rats [2]; 500 pmol/day/7 days i.p.): 3.90 ± 0.38 S/M | Intestinal calcium transport activity compared to 1,25(OH)2D3 (Sprague-Dawley rats [2]; Table 1 and FIG. 2, result in words): very little activity; also recorded: significantly less than that of 1,25-(OH)2D3 | Serum Calcium (bone calcium mobilization) (Sprague-Dawley rats [3]; 250 pmol/day/7 days i.p.): 4.84 ± 0.37 mg/100 ml | Serum Calcium (bone calcium mobilization) (Sprague-Dawley rats [3]; 500 pmol/day/7 days i.p.): 3.96 ± 0.19 mg/100 ml | Bone calcium mobilization activity (raising serum calcium) compared to 1,25(OH)2D3 (Sprague-Dawley rats [3]; Table 1, FIG. 3 and FIG. 7, result in words): very little bone calcium mobilization activity; also recorded: significantly less potent than 1,25(OH)2D3 | HL-60 differentiation potency compared to 1,25(OH)2D3 (HL-60 cells): almost as potent as 1,25(OH)2D3; also recorded: only slightly less active than 1,25-(OH)2D3 | Transcriptional activity in bone cells ([5]; ROS 17/2.8 cells, 16 h after dosing, FIG. 5, result in words): has transcriptional activity in bone cells; also recorded: significant transcriptional activity | Transcriptional activity in kidney cells [6, 7]: greater than or equivalent to 1,25(OH)2D3 | Transcriptional activity in kidney cells ([6]; listed as 2 MHP): has transcriptional activity in kidney cells; also recorded: significant transcriptional activity | Post-Dose serum calcium (Sprague-Dawley rats [1]): 4.36 mg/dL | Pre-Dose serum calcium (Sprague-Dawley rats [1]): 4.86 mg/dL
